Entries after “also recorded” stand apart in the source; their conditions may differ. Where two headings read alike, the source gives them in different places. Where a SMILES comes first, the peptide text is derived from it. Primed or numbered codes have the meaning given here. Where no end group is shown, it is not given here. The star is where a group is joined. X1 = O=C(O)CN1CCN(CC(=O)O)CCN(C(CCC(=O)NCCN2C(=O)CC(*)C2=O)C(=O)O)CC1; NODAGA′ = NODAGA chelator (maleimide-conjugated) for radiolabelling; Alexa 488 = Alexa Fluor 488 fluorescent dye
Columns and labels:
[1] = Method: To assess in vitro plasma stability 12 MBq ^111In-[FnBPA5-NODAGA] and ^111In-[scraFnBPA5-NODAGA] were incubated with 400 μL human blood plasma at 37° C. At different time points (0, 0.25, 0.5, 1, 2, 48 and 72 hours) 40 μL of plasma was taken out and precipitated by the addition of 200 μL EtOH, acetonitrile, 0.1% TFA.
PC-3 xenografts [2] = tested on: PC-3 xenografts
Method: (§1) PC-3 cells (human prostate carcinoma cell line, ACC-465, DSMZ, Braunschweig, Germany) were cultured in Roswell Park Memorial Institute 1640 medium (Amimed, Bioconcept, Switzerland). Cells were cultured as monolayers at 37° C. in a humidified atmosphere containing 5% CO2.
(§2) In vivo experiments were approved by the local veterinarian department and conducted in accordance with the Swiss law for animal protection. The 3-5 weeks-old female CD1 nude mice were purchased from Charles River (Germany). After 5-7 days acclimatisation period, the tumor cells were subcutaneously inoculated in both shoulders of the mice (3*106-1*107 cells in 100-150 μL PBS per side). Experiments were performed 3-4 weeks after inoculation.
SPECT/CT experiments were performed using a 4-head multiplexing multipinhole camera (NanoSPECT/CTplus, Bioscan Inc., Washington D.C., USA). CT scans were performed with a tube voltage of 45 kV and a tube current of […]. SPECT scans at 24, 72 and 96 hours post injection were obtained with an acquisition time of 20-90 sec. per view resulting in a total scanning time of 20-45 min per mouse.
The distribution of ^111In-radiolabeled FnBPA5 peptide injected into the tail vein of a living mouse was monitored by means of SPECT/CT for a period of 96 hours. […] (2.4 nmol, 100 μL PBS) into the tail vein. […] SPECT images were reconstructed using HiSPECT software (Scivis GmbH, Goettingen, Germany). The images were reconstituted and processed with InVivoScope® software (BioscanInc., Washington D.C., USA) and zoom in videos were generated using Adobe Flash.
To visualize additional binding of the tracer to tissues throughout the body, the kidneys were subsequently removed from the sacrificed mice and the scan was repeated.

in vivo = settings: female, CD1 nude, mouse, iv, 150 kBq, total radioactivity
Method: as §1, §2
(§3) The tissue-specific peptide pharmacokinetics, particularly in cancer stroma, were assessed in groups of 4 PC-3-bearing mice that were injected with approximately 150 kBq ^111In-FnBPA5 respectively ^111In-scraFnBPA5 (2.4 nmol/[…] PBS) into the tail vein and biodistribution of peptides was analyzed at different time points (1, 4, 24 and 96 hours post injection (p.i. and after sacrification)) by means of percentage of injected activity per gram tissue (% IA/g).

PC-3 xenografts [3] = assay: In vivo blocking study with pre-injected unlabeled FnBPA5; parameters: species or system mouse; settings: for effect of pre-injection of unlabeled FnBPA5 on accumulation: approximately 10-fold excess unlabeled FnBPA5, 4 hour post-injection
Method: (A) Biodistribution of FnBPA5 in PC-3 bearing mice was monitored at different time points in various organs. […] (C) Blocking studies were performed and uptake was analyzed 4 hour post-injection.
as §3

soluble plasma Fn = assay: Fluorescence anisotropy titration (fluorescence polarization); type: binding, human; settings: 100 nM Alexa-488 peptide in PBS, Fn 0 to 1.4 μM, 20° C.; read-out: dissociation constant Kd to soluble plasma Fn
Method: The binding affinities of Fn to FnBPA5 were determined in three independent measurements by anisotropy titrations in a Cary Eclipse Fluorescence Spectrophotometer (Agilent Technologies) equipped with automated polarizers. FnBPA5 and its scrambled derivative were synthesized with an N-terminal Alexa-488 dye. The anisotropy of 100 nM Alexa-488 labelled peptide was measured in PBS at Fn concentrations ranging from 0 to 1.4 μM. Excitation and emission were at λex 480 nm and λem 520 nm respectively with both slit 10 nm, 20° C., 5 s signal acquisition and g=1.4. The Kd values were determined by fitting the data to a one-site-binding model using Origin 7 (OriginLab Northampton, Mass., USA).
With higher Fn concentration an increasing amount of peptide is bound to Fn leading to a shift in fluorescence anisotropy.

[4] = tested on: manually pulled relaxed Fn fibers (fibrillar Fn); assay: Manually pulled Fn fiber binding assay (confocal microscopy); parameters: species or system human; settings: for binding to manually pulled Fn fibers (peptide signal): confocal microscopy, peptide signal vs Fn-Cy5
Description: Manually pulled Fn fibers were used as a model system for fibrillar Fn as described previously (W. C. Little, M. L. Smith, U. Ebneter, and V. Vogel, “Assay to mechanically tune and optically probe fibrillar fibronectin conformations from fully relaxed to breakage,” Matrix Biology, vol. 27, no. 5, pp. 451-461, June 2008). Fibers containing 5% of photolabeled Fn-Cy5 were deposited onto a stretchable silicone sheet, relaxed to half of their original length, corresponding to a total 7% molecular strain and after a blocking step with 4% bovine serum albumin in PBS, they were incubated with different concentrations of Alexa488 fluorescently labeled FnBPA5 to obtain a binding curve.
Manually pulled Fn fiber samples were imaged with an Olympus FV1000 confocal microscope using a 40× water immersion objective with a numerical aperture of 0.9. Alexa488-FnBPA5 and Fn-Cy5 channels were imaged with a 512×512 pixel resolution and photomultiplier tube voltage and laser powers were kept constant within an experiment.
Images were analyzed using Fiji-ImageJ and Matlab (MathWorks, Natick, Mass., USA). […] Dark current values were subtracted from images and pixels with intensities below a cutoff threshold and at saturation were excluded from analysis. Approximately 10 fibers were imaged per experimental condition and each of these conditions was done in triplicate. […] Data points were fit using the Hill model assuming non-cooperative binding (using the below equation) and plot using Origin.
To assess binding constant of Alexa488-FnBPA5 and of its scrambled analogue to Fn fibers a fiber stretch assay as described above and before (Little et al., Matrix Biology, vol. 27, no. 5, pp. 451-461, June 2008) was used. Fn fibers are manually pulled from a Fn solution containing 5% fluorophore labeled Fn and deposited onto a silicone membrane. Silicone membranes can then be stretched or relaxed to desired mechanical strain state.
Peptide fluorescence intensity normalized against the Cy5-intensity from the Fn-fibers for different peptide concentrations was assessed. Intensity ratio of 10 μM FnBPA5-488 was defined as saturated and all other intensity ratios were normalized with this factor.

[5] = tested on: fibrillar Fn in fibroblast ECM; assay: Binding to fibrillar Fn in fibroblast-assembled ECM (colocalization); type: cell-based; settings: normal human dermal fibroblasts, 2 days ECM, 5 μg/ml peptide, 1 hour
Method: Fibroblast ECM samples (FIG. 2C) were acquired with the same microscope using an oil immersion 1.45 NA 60× objective with a pixel resolution of 1024×1024.
To achieve this, normal human dermal fibroblasts (PromoCell, Heidelberg, Germany) were cultured in alpha minimum essential medium (α-MEM) with 10% fetal bovine serum (FBS) from BioWest, Nuaillé, France, and split before reaching confluence. Cells were seeded onto Fn-coated 8-well chambered coverglasses (Lab-Tek, Nalgene Nunc, Thermo Scientific, Waltham, Mass., USA) at a density of 30×10^3 cells per cm^2 and allowed to attach to the surface before medium exchange to medium containing 50 μg/ml unlabeled Fn. Cells were cultured for 48 hours. Fibronectin was then stained using a rabbit polyclonal anti-fibronectin antibody (ab23750, abcam, Cambridge, UK) and 5 μg/ml FnBPA5-Alexa488 respectively scr-FnBPA5-Alexa488 peptide for 1 hour before fixation with a 4% paraformaldehyde solution in PBS. After fixation cells were permeabilized for 10 minutes with PBS containing 0.01% Triton X-100. After a washing step samples were blocked in 4% BSA and 4% donkey serum for 1 hour at room temperature. Samples were then incubated for 1 hour with a donkey anti-rabbit Alexa 546 (Invitrogen) secondary antibody and Phalloidin-633 (Invitrogen, Carlsbad, Calif., USA). Before imaging cell nuclei were stained using DAPI. […]

N-terminal Fn fragments = N-terminal Fn fragments (Homo sapiens, UniProt P02751); settings: literature value, Meenan et al. 2007; read-out: Kd to N-terminal Fn fragments in solution; cited from earlier work
relaxed Fn fibers = assay: Displacement assay on manually pulled Fn fibers against FnBPA5-Alexa488; type: binding, human; settings: cold labeled competitor
Method: Relaxed Fn fibers were incubated with FnBPA5-Alexa488 peptide, washed and then incubated with different concentrations of FnBPA5-In to measure the concentration of competitor.
To assess whether the presence of the chelator for the radiolabeled ^111In-isotope impairs FnBPA5 binding to manually pulled Fn fibers, a displacement assay was performed using ^natIn-FnBPA5 (cold labeled) against FnBPA5-Alexa488.

[6] = 96 hours post injection, 12 MBq, tail vein
[7] = 96 hours post injection, kidneys removed

Chain of manually pulled relaxed Fn fibers (fibrillar Fn) (P02751 32-290 limits assumed): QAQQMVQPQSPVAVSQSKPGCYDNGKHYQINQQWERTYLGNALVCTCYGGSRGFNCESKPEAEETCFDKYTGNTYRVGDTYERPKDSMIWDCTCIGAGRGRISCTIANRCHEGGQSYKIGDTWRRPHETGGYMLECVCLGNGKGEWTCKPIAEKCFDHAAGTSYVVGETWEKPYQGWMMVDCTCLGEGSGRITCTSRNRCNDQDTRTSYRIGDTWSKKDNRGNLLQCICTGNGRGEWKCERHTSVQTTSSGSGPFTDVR
Chain of fibrillar Fn in fibroblast ECM (P02751 32-290 limits assumed): as above
Chain of soluble plasma Fn (P02751 32-290 limits assumed): as above
Chain of N-terminal Fn fragments (P02751 52-272 limits assumed): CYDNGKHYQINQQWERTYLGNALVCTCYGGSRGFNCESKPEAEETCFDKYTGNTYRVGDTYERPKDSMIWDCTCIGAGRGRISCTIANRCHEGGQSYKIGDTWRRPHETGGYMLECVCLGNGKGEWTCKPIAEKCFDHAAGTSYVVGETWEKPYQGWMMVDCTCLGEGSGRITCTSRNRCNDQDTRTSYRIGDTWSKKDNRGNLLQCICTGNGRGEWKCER
Chain of relaxed Fn fibers (P02751 95-273 limits assumed): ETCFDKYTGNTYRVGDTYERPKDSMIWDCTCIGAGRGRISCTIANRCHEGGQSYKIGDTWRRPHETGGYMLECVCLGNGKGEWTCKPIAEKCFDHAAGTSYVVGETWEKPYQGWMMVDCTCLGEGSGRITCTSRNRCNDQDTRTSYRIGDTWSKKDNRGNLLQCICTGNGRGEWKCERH

Compound | SPECT/CT kidney uptake (PC-3 xenografts [2]; [6]) | SPECT/CT uptake in other organs after kidney removal (PC-3 xenografts [2]; [7]) | effect of pre-injection of unlabeled FnBPA5 on accumulation (PC-3 xenografts [3]) | SPECT/CT kidney uptake (PC-3 xenografts [2]; mouse, in vivo) | SPECT/CT uptake in other organs after kidney removal (PC-3 xenografts [2]; mouse, in vivo) | Kd (soluble plasma Fn) [nM] | binding to manually pulled Fn fibers (peptide signal) [4] | binding to fibrillar Fn in fibroblast ECM [5] | also measured
CC[C@H](C)[C@H](NC(=O)CNC(=O)[C@H](CCCCN)NC(=O)[C@@H](NC(=O)[C@H](CO)NC(=O)[C@H](CCC(=O)O)NC(=O)[C@H](CCC(=O)O)NC(=O)[C@H](CC(=O)O)NC(=O)[C@H](Cc1ccccc1)NC(=O)[C@H](CCC(=O)O)NC(=O)[C@@H](NC(=O)[C@H](CC(C)C)NC(=O)[C@H](CC(N)=O)NC(=O)[C@H](CO)NC(=O)[C@H](CCC(=O)O)NC(=O)[C@@H](NC(=O)[C@@H](NC(=O)[C@@H](NC(=O)[C@H](CCC(N)=O)NC(=O)CNC(=O)CNC(=O)CNC(=O)[C@@H](N)CSC1CC(=O)N(CCNC(=O)CCC(C(=O)O)N2CCN(CC(=O)O)CCN(CC(=O)O)CC2)C1=O)C(C)C)[C@@H](C)O)[C@@H](C)O)C(C)C)[C@@H](C)O)C(=O)N[C@H](C(=O)N[C@H](C(=O)NCC(=O)N[C@@H](C)C(=O)N[C@H](C(=O)N[C@@H](CO)C(=O)N[C@@H](CC(=O)O)C(=O)N[C@@H](Cc1c[nH]cn1)C(=O)N[C@H](C(=O)N[C@H](C(=O)N[C@H](C(=O)N[C@@H](CCC(=O)O)C(=O)N[C@@H](CC(=O)O)C(=O)N[C@H](C(=O)N[C@@H](CCCCN)C(=O)O)[C@@H](C)O)C(C)C)[C@@H](C)O)[C@@H](C)O)C(C)C)[C@@H](C)O)C(C)C (stereo partly drawn) [^111In-FnBPA5, metal not drawn] (H-C(X1)GGGQVTTESNLVEFDEESTKGIVTGAVSDHTTVEDTK-OH; N-terminus and C-terminus assumed) | mainly accumulated in the kidneys | predominant uptake in tumor and liver | significant reduction in the uptake of ^111In-FnBPA5 in both liver and tumor | – | – | – | – | – | plasma stability, peptide intact ([1]; human blood plasma, 37° C., after 72 hours): still intact; tissue uptake at 1 h (in vivo; kidney accumulation, kidneys, 1 hour p.i. (maximum)): 141 ± 18.1 %ID/g; tissue uptake at 1 h (in vivo; tumor uptake, PC-3 tumor, 1 h p.i. (maximum)): 4.74 ± 0.77 %ID/g; uptake decrease in liver by blocking (PC-3 xenografts [3]; pre-injection of 100 μg unlabeled FnBPA5, 4 hour post-injection, liver): 58.2%; uptake decrease in tumor tissue by blocking (PC-3 xenografts [3]; pre-injection of 100 μg unlabeled FnBPA5, 4 hour post-injection, tumor): 35.6%
CC[C@H](C)[C@H](NC(=O)[C@@H](NC(=O)[C@H](CCC(=O)O)NC(=O)CNC(=O)[C@H](Cc1ccccc1)NC(=O)[C@H](CC(=O)O)NC(=O)[C@@H](NC(=O)[C@H](CCCCN)NC(=O)[C@@H](NC(=O)CNC(=O)[C@@H](NC(=O)[C@H](CC(C)C)NC(=O)[C@H](CC(=O)O)NC(=O)[C@H](CCC(=O)O)NC(=O)[C@H](CCC(N)=O)NC(=O)[C@H](CCC(=O)O)NC(=O)[C@H](CO)NC(=O)CNC(=O)[C@@H](N)CSC1CC(=O)N(CCNC(=O)CCC(C(=O)O)N2CCN(CC(=O)O)CCN(CC(=O)O)CC2)C1=O)[C@@H](C)O)[C@@H](C)O)C(C)C)[C@@H](C)O)C(=O)N[C@H](C(=O)N[C@H](C(=O)N[C@@H](CC(N)=O)C(=O)N[C@@H](CCC(=O)O)C(=O)N[C@@H](C)C(=O)N[C@H](C(=O)N[C@@H](CCC(=O)O)C(=O)N[C@H](C(=O)N[C@H](C(=O)N[C@H](C(=O)N[C@@H](CO)C(=O)NCC(=O)N[C@@H](CO)C(=O)N[C@H](C(=O)N[C@@H](Cc1c[nH]cn1)C(=O)NCC(=O)N[C@H](C(=O)N[C@@H](CCCCN)C(=O)N[C@H](C(=O)O)C(C)C)[C@@H](C)O)[C@@H](C)O)[C@@H](C)O)C(C)C)[C@@H](C)O)[C@@H](C)O)C(C)C)C(C)C (stereo partly drawn) [^111In-scraFnBPA5, metal not drawn, reference compound] (H-C(X1)GSEQEDLTGTKVDFGETIVVNEATETVTSGSTHGTKV-OH; N-terminus and C-terminus assumed) | – | – | no significant differences | mainly accumulated in the kidneys | no uptake into other tissues was visible | – | – | – | tissue uptake at 1 h (in vivo; kidney accumulation): 164 ± 18.9 %ID/g
Alexa 488-FnBPA5: FnBPA5 with N-terminal Alexa-488 dye ({Alexa 488}-CGGGQVTTESNLVEFDEESTKGIVTGAVSDHTTVEDTK) | – | – | – | – | – | 75 | – | – | –
CGGGQVTTESNLVEFDEESTKGIVTGAVSDHTTVEDTK [FnBPA5] | dominant kidney uptake | uptake in tumors and liver | – | – | – | 75 | specific peptide binding; also recorded: significantly higher binding; also recorded: much stronger than the scrambled control derivative | specific binding | Kd ([4]; relaxed fibers, 7% molecular strain, Alexa488-labelled peptide, Hill fit, read-out: dissociation constant Kd to manually pulled relaxed Fn fibers): 28 nM; plasma stability ([1]; 37° C., blood plasma and water, 1 hour time point): high stability; Kd (N-terminal Fn fragments): 44.2 nM
^natIn-FnBPA5: Cold labeled (natural indium) chelator-conjugated FnBPA5 (C(NODAGA′)GGGQVTTESNLVEFDEESTKGIVTGAVSDHTTVEDTK; also: natural indium complexed by chelator) | – | – | – | – | – | – | – | – | IC50 (relaxed Fn fibers): 49 nM
scraFnBPA5: Negative control of FnBPA5 with scrambled sequence (SEQ ID NO 296) (CGSEQEDLTGTKVDFGETIVVNEATETVTSGSTHGTKV) [reference compound] | – | – | – | dominant kidney uptake | does not show any specific uptake in other organs | – | within the background noise | unspecificly attached to the matrix | plasma stability [1]: high stability

From patent US11649268B2, “Fibronectin-binding peptides for use in tumor or fibrosis diagnosis and therapy” (priority 2016, dated 2023)
